Tested on: human prostate
Assay: Contractile responses of human prostate
Conditions: antagonist affinity estimate against (−)-noradrenaline contractions of prostatic tissue strips; single antagonist concentration, incubated 2 hours
Experimental: Contractile Responses of Human Prostate
Prostatic tissue was cut into longitudinal strips (approximately 3×2×10 mm) and suspended in organ baths under a resting tension of 1 g in Krebs Ringer bicarbonate of the following composition (mM): NaCl (119), KCl (4.7), CaCl2 (2.5), KH2PO4 (1.2), MgSO4 (1.2), NaHCO3 (25), glucose (11), and gassed with 95% O2/5% CO2.
The solution also contained […]. Tissues were exposed to a sensitising dose of (−)-noradrenaline ([…]) and washed over a 45 minute period. Isometric contractions were obtained in response to cumulative additions of (−)-noradrenaline to obtain control curves in all tissues. A further curve was then generated in the presence or absence of antagonist (incubated for 2 hours). Antagonist affinity estimates (pA2) were determined using a single concentration of competing antagonist, […] where the dose ratio (DR), relative to corresponding controls, was produced by a single concentration of antagonist [A], assuming competitive antagonism and Schild regression close to unity.

COc1cc2nc(N3CCCN(C(=O)N4CCOCC4)CC3)nc(N)c2cc1OCC1CCC1 [Example 3, 4-Amino-6-cyclobutylmethyloxy-7-methoxy-2-[4-(4-morpholinecarbonyl)-1,4-diazepan-1-yl]quinazoline]
pA2 value: 9.2

From patent publication US6417194B1, “Quinolines and quinazolines useful in therapy” (Pfizer, Inc., priority 1997, dated 2002)
